# Tests used:
# [1] = system: Musca domestica WHO/SRS (L3 larvas); assay: hatching of imagos from L3 fly larvas on treated nutriment; type: in vivo; details: 12 days
# Text: (§1) For this purpose the activity of several pyrethroid insecticides has been tested per se or in combination with different benzimidazole type anthelmintics on flies (Musca domestica). […] This synergistic interaction was shown not only in the decrease of the therapeutical concentrations but also on the activity of the sublethal doses to the development. The body mass of the larvas is decreased and from the little aurelias evolved during the long development often deformed imagos, unsuitable for further multiplication were hatched out. Above all the synergistic interaction has made possible the decrease of the therapeutic dose of the orally administered insecticide.
# (§2) For examining the interaction between benzimidazoles and pyrethroids the larvas of domestic flies in L3 status (Musca domestica WHO/SRS) were used as model organism.
# (§3) A nutriment suitable for breeding fly larvas was prepared from yeast, milk, bran and water and the nutriment was portioned into plastic glasses. Acetonic strain solution was prepared from the active ingredients and after dilution the amounts necessary for achieving the desired active ingredient concentrations were added to the nutriment in the plastic glasses.
# The examinations were carried out with total active ingredient concentrations of 1, 5, 10, 50, 100 and 200 ppm in 6 parallel tests per each concentration. Into the plastic glasses containing the treated culture medium 20--20 domestic fly-larvas of L3 status were placed after mass measurement. The glasses were covered by gauze and after 12 days the hatched imagos were counted. In the control containing only solvent the hatching ratio was 91%, the average weight of the hatched flies was 18.2 mg.
# [2] = system: Musca domestica (L3 larvas); assay: average body mass and hatching % of fly larvas/imagos after treatment; type: in vivo
# Text: as §1, §2, §3
# Fly larvas of L3 status were grown in identical manner as in an Example 1, on a nutriment having a total active ingredient concentration of 5 and 10 ppm.
# [3] = system: horse bots (Gastrophylus larvas); assay: therapeutic dose / therapeutic index against horse bots; type: in vivo, Gastrophylus species (in horses); details: for Therapeutic index (selectivity): quotient of toxic (rat LD50) and therapeutic dose (horse bots)
# Description: One of the most important characteristics of the pharmaceutical compositions is the quotient of toxic and therapeutic dosage, the so-called therapeutic index characterizing the security of use. The higher is this value, the smaller is the risk in use, the selective is the active ingredient.
# On the basis of the results of the laboratory examinations and toxicity data the therapeutic dose usable for treating bot infection of horses was determined in field trials.
# (§4) The therapeutic indexes of current anthelmintics and transmix each having insecticidal activity and suitable for per os administration are shown in Table 1.
# [4] = acute per os toxicity (LD50), measured on rats; type: in vivo, rat; details: rat, in vivo, po
# Text: as §4
# rats = assay: acute per os toxicity (LD50), measured on rats; type: in vivo, rat
# Text: as §4
# horses = horses (Vet. Med., 1985, Apr., p. 68); cited from earlier work
# [5] = 100 ppm total active ingredient
# [6] = 200 ppm total active ingredient
Compound,number of hatched imagos (from 120 L3) ([1]; 1 ppm total active ingredient),number of hatched imagos (from 120 L3) ([1]; 5 ppm total active ingredient),number of hatched imagos (from 120 L3) ([1]; 10 ppm total active ingredient),number of hatched imagos (from 120 L3) ([1]; 50 ppm total active ingredient),"number of hatched imagos (from 120 L3) [1, 5]","number of hatched imagos (from 120 L3) [1, 6]",average body mass ([2]; 5 ppm total active ingredient),hatching % ([2]; 5 ppm total active ingredient) [%],average body mass ([2]; 10 ppm total active ingredient),hatching % ([2]; 10 ppm total active ingredient) [%],Therapeutic index (selectivity) [3],LD50 [4] [mg/kg],"Therapeutic dose ([3]; against horse bots, per os) [mg/kg]",Toxicity acute per os LD50 (rats) [mg/kg],side effects accompanying treatment (horses)
"CC1(C)[C@H](C=C(Cl)Cl)[C@H]1C(=O)O[C@H](C#N)c1cccc(Oc2ccccc2)c1 (relative stereo) [Transmix, α-cyano-3-(2,2-dichlorovinyl)-2,2-dimethyl-cyclopropan-carboxylic acid-3-phenoxybenzylester]",108,112,89,64,39,18,12.9,98,9.6,84,2500,5000,–,–,–
"CCCSc1ccc2nc(NC(=O)OC)[nH]c2c1 [Albendazole, 5(6)-propylthio-benzimidazole-N-methylcarbamate]",111,113,107,112,107,109,18.3,100,17.8,100,–,–,–,–,–
"CC1(C)C(C=C(Cl)Cl)C1C(=O)OC(C#N)c1cccc(Oc2ccccc2)c1 (stereo not drawn) [Chinmix, α-cyano-3-(2,2-dichlorovinyl)-2,2-dimethyl-cyclopropan-carboxylic acid-3-phenoxybenzylester]",90,62,47,27,4,0,10.3,53,7.8,41,–,–,–,–,–
dihydro-avermectine B1 [Ivermectine],–,–,–,–,–,–,–,–,–,–,–,–,0.2,10,–
"COP(=O)(OC)OC=C(Cl)Cl [Dichlorvos, 2,2-dichlorovinyl-phosphonic acid dimethylester]",–,–,–,–,–,–,–,–,–,–,11,56,–,–,–
"COP(=O)(OC)C(O)C(Cl)(Cl)Cl (stereo not drawn) [Trichlorfon, 2,2,2-trichloro-1-hydroxyethyl-phosphonic acid dimethylester]",–,–,–,–,–,–,–,–,–,–,15,450,–,–,"diarrhoea, frequent defecation and urination"

# From patent US5006545A, “Veterinary compositions against endoparasites containing cypermethrin and albendazole” (priority 1988, dated 1991)
